# Patent US20260285816A1, “Piperazinyl-Modified Quinazolinyl-Aryl Urea Derivative, And Preparation Method And Use Thereof” (Guangxi Normal University, priority 2025, published 2026)
# Where two headings read alike, the source gives them in different places.
# Tests used:
# Format in all cases: cell-based, human
# Hep G2 cells = test: CCK-8 anti-proliferative assay, Hep G2; settings: Homo sapiens, HepG2; Table 12; co-incubated 48 h; read-out: Anti-proliferative activity (IC50 ± standard deviation) Hep G2
# Outline: (§1)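 Absorbance at 450 nm after CCK-8 labelling (1–4 h, varying by cell line) gave inhibition relative to untreated control, from which IC50 values were derived. Compounds were applied at final concentrations of 1 to 30 μM in triplicate wells once cultures reached 70% confluency, with co-incubation for designated durations.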
# A549 cells = test: CCK-8 anti-proliferative assay, A549; settings: Homo sapiens, A549; Table 13; co-incubated 48 h; read-out: Anti-proliferative activity (IC50 ± standard deviation) A549
# Outline: (§2)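 Dose range 1–30 μM final (nine levels, n=3), added at 70% confluency to 5,000 cells/well cultured at 37° C., 5% CO2. CCK-8 incubation 1-4 h depending on cell type.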
# 5637 cells = test: CCK-8 anti-proliferative assay, 5637; settings: Homo sapiens; Table 10; co-incubated 48 h; read-out: Anti-proliferative activity (IC50 ± standard deviation) 5637
# Outline: as §2
# [1] = system: embryonic lung fibroblasts (WI-38); test: CCK-8 anti-proliferative assay, normal cells WI-38; settings: Homo sapiens, WI-38, Table 13, co-incubated 48 h, read-out: Anti-proliferative activity (IC50 ± standard deviation) WI-38
# Outline: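 Logarithmic-phase cells are plated at 5,000 cells per well and incubated at 37° C. with 5% CO2. At 70% confluency, compound is added at nine final concentrations from 1 to 30 μM. After exposure, CCK-8 is added and OD at 450 nm measured to calculate IC50.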
# SK-OV-3 cells = test: CCK-8 anti-proliferative assay, SK-OV-3; settings: Homo sapiens, SK-OV-3; Table 12; co-incubated 48 h; read-out: Anti-proliferative activity (IC50 ± standard deviation) SK-OV-3
# Outline: as §2
# BxPC-3 cells = test: CCK-8 anti-proliferative assay, BxPC-3; settings: Homo sapiens, BXPC-3; Table 11; co-incubated 48 h; read-out: Anti-proliferative activity (IC50 ± standard deviation) BxPC-3
# Outline: as §1
# MG-63 cells = test: CCK-8 anti-proliferative assay, MG-63; settings: Homo sapiens, MG-63
# Outline: as §1
# J82 cells = test: CCK-8 anti-proliferative assay, J82; settings: Homo sapiens, J82; Table 10; co-incubated 48 h; read-out: Anti-proliferative activity (IC50 ± standard deviation) J82
# Outline: as §2
# [2] = system: immortalized ureteral epithelial cells (SV-HUC-1); test: CCK-8 anti-proliferative assay, normal cells SV-HUC-1; settings: Homo sapiens, SV-HUC1; Table 13; normal cells; co-incubated 48 h; read-out: Anti-proliferative activity (IC50 ± standard deviation) SV-HUC-1
# Outline: as §2
# T24 cells = test: CCK-8 anti-proliferative assay, T24; settings: Homo sapiens, T-24; Table 10; co-incubated 48 h; read-out: Anti-proliferative activity (IC50 ± standard deviation) T24
# Outline: as §1
# HeLa cells = test: CCK-8 anti-proliferative assay, HeLa; settings: Homo sapiens, HeLa; Table 12; co-incubated 48 h; read-out: Anti-proliferative activity (IC50 ± standard deviation) HeLa
# Outline: as §2
# PANC-1 cells = test: CCK-8 anti-proliferative assay, PANC-1; settings: Homo sapiens, PANC-1; Table 11; co-incubated 48 h; read-out: Anti-proliferative activity (IC50 ± standard deviation) PANC-1
# Outline: as §1
# UM-UC-3 cells = test: CCK-8 anti-proliferative assay, UM-UC-3; settings: Homo sapiens, UMUC3; Table 10; co-incubated 48 h; read-out: Anti-proliferative activity (IC50 ± standard deviation) UM-UC-3
# Outline: as §2
# MCF-7 cells = test: CCK-8 anti-proliferative assay, MCF-7; settings: Homo sapiens, MCF7; Table 12; co-incubated 48 h; read-out: Anti-proliferative activity (IC50 ± standard deviation) MCF-7
# Outline: as §2
# 143B cells = test: CCK-8 anti-proliferative assay, 143B; settings: Homo sapiens, 143B
# Outline: as §1
# [3] = Table 11, co-incubated 48 h, read-out: Anti-proliferative activity (IC50 ± standard deviation) MG-63
# [4] = Table 11, co-incubated 48 h, read-out: Anti-proliferative activity (IC50 ± standard deviation) 143B
SMILES,IC50 (Hep G2 cells),IC50 (A549 cells),IC50 (5637 cells),IC50 [1],IC50 (SK-OV-3 cells),IC50 (BxPC-3 cells),IC50 (MG-63 cells; [3]),IC50 (J82 cells),IC50 [2],IC50 (T24 cells),IC50 (HeLa cells),IC50 (PANC-1 cells),IC50 (UM-UC-3 cells),IC50 (MCF-7 cells),IC50 (143B cells; [4]),"IC50 (MG-63 cells; read-out: IC50 values, osteosarcoma cells MG-63)","IC50 (143B cells; read-out: IC50 values, osteosarcoma cells 143B)"
"COc1cc2ncnc(NCc3cccc(NC(=O)Nc4ccccc4Cl)c3)c2cc1OCCCCCCN1CCC(CN2CCN(c3ccccn3)CC2)CC1 [Compound 8-2o, N-(3-(((7-methoxy-6-((6-(4-((4-(pyridin-2-yl)piperazin-1-yl)methyl)piperidin-1-yl)hexyl)oxy)quinazolin-4-yl)amino)methyl)phenyl)-N′-(2-chlorophenyl)urea]",16 ± 0.96 µM,27.2 ± 2.04 µM,12.4 ± 0.89 µM,12.7 ± 0.89 µM,11.9 ± 0.94 µM,22.4 ± 1.27 µM,9.92 ± 0.82 µM,16.7 ± 1.52 µM,16.2 ± 0.84 µM,7.93 ± 0.22 µM,13.7 ± 1.29 µM,> 30 µM,15.9 ± 0.95 µM,16.2 ± 1.07 µM,13.8 ± 0.82 µM,,
"COc1cc2ncnc(NCc3cccc(NC(=O)Nc4ccc(Cl)cc4)c3)c2cc1OCCCCCCN1CCC(CN2CCN(c3ccccn3)CC2)CC1 [Compound 8-2q, N-(3-(((7-methoxy-6-((6-(4-((4-(pyridin-2-yl)piperazin-1-yl)methyl)piperidin-1-yl)hexyl)oxy)quinazolin-4-yl)amino)methyl)phenyl)-N′-(4-chlorophenyl)urea]",10.7 ± 0.98 µM,13.3 ± 0.86 µM,4.32 ± 0.33 µM,7.36 ± 0.23 µM,5.62 ± 0.47 µM,13.2 ± 0.78 µM,8.61 ± 0.53 µM,6.69 ± 0.53 µM,9.49 ± 0.73 µM,6.76 ± 0.38 µM,7.72 ± 0.34 µM,15.2 ± 0.67 µM,7.19 ± 0.47 µM,6.44 ± 0.71 µM,7.08 ± 0.85 µM,,
"COc1cc2ncnc(NCc3cccc(NC(=O)Nc4ccc(Cl)cc4Cl)c3)c2cc1OCCCCCCN1CCC(CN2CCN(c3ccccn3)CC2)CC1 [Compound 8-2r, N-(3-(((7-methoxy-6-((6-(4-((4-(pyridin-2-yl)piperazin-1-yl)methyl)piperidin-1-yl)hexyl)oxy)quinazolin-4-yl)amino)methyl)phenyl)-N′-(2,4-dichlorophenyl)urea]",7.02 ± 0.49 µM,12.3 ± 0.92 µM,6.29 ± 0.37 µM,7.72 ± 0.39 µM,11.3 ± 0.83 µM,10.3 ± 0.93 µM,7.02 ± 0.58 µM,4.73 ± 0.38 µM,8.41 ± 0.43 µM,5.12 ± 0.39 µM,7.37 µM,14.6 ± 0.78 µM,11.7 ± 0.96 µM,11.4 ± 0.76 µM,8.91 ± 0.77 µM,,
"COc1cc2ncnc(NCc3cccc(NC(=O)Nc4c(Cl)cc(Cl)cc4Cl)c3)c2cc1OCCCCCCN1CCC(CN2CCN(c3ccccn3)CC2)CC1 [Compound 8-2s, N-(3-(((7-methoxy-6-((6-(4-((4-(pyridin-2-yl)piperazin-1-yl)methyl)piperidin-1-yl)hexyl)oxy)quinazolin-4-yl)amino)methyl)phenyl)-N′-(2,4,6-trichlorophenyl)urea]",4.91 ± 0.55 µM,7.32 ± 0.85 µM,4.87 ± 0.29 µM,11.5 ± 0.62 µM,6.02 ± 0.39 µM,9.72 ± 0.95 µM,11 ± 0.97 µM,4.62 ± 0.33 µM,8.36 ± 1.62 µM,7.73 ± 0.47 µM,7.99 ± 0.68 µM,10.4 ± 0.62 µM,10 ± 0.73 µM,5.88 ± 0.57 µM,5.94 ± 0.43 µM,,
"COc1cc2ncnc(NCc3cccc(NC(=O)Nc4ccc(C(F)(F)F)cc4)c3)c2cc1OCCCCCCN1CCC(CN2CCN(c3ccccn3)CC2)CC1 [Compound 8-2t, N-(3-(((7-methoxy-6-((6-(4-((4-(pyridin-2-yl)piperazin-1-yl)methyl)piperidin-1-yl)hexyl)oxy)quinazolin-4-yl)amino)methyl)phenyl)-N′-(4-(trifluoromethyl)phenyl)urea]",4.76 ± 0.45 µM,11.8 ± 0.88 µM,7.32 ± 0.57 µM,10.6 ± 0.64 µM,13.3 ± 0.84 µM,11.3 ± 0.73 µM,11.7 ± 0.92 µM,5.46 ± 0.41 µM,8.92 ± 0.49 µM,6.47 ± 0.25 µM,7.29 ± 0.24 µM,15.6 ± 0.93 µM,6.79 ± 0.41 µM,5.94 ± 0.36 µM,9.42 ± 0.56 µM,,
COc1cc2ncnc(NCc3cccc(NC(=O)Nc4ccc(F)c(C(F)(F)F)c4)c3)c2cc1OCCCCCCN1CCC(CN2CCN(c3ccccn3)CC2)CC1 [Compound 8-2u],14.3 ± 1.33 µM,12.4 ± 1.43 µM,13.2 ± 0.78 µM,15.9 ± 0.85 µM,15.6 ± 0.92 µM,25.4 ± 1.57 µM,16 ± 1.07 µM,12.9 ± 0.66 µM,23.1 ± 0.97 µM,14.1 ± 0.77 µM,> 30 µM,> 30 µM,11.9 ± 0.66 µM,9.92 ± 0.86 µM,13.6 ± 0.92 µM,,
COc1cc2ncnc(NCc3cccc(NC(=O)Nc4ccc(Cl)c(C(F)(F)F)c4)c3)c2cc1OCCCCCCN1CCC(CN2CCN(c3ccccn3)CC2)CC1 [Compound 8-2v],4.97 ± 0.35 µM,7.98 ± 0.92 µM,11.8 ± 0.95 µM,8.71 ± 0.52 µM,5.49 ± 0.63 µM,14.9 ± 1.28 µM,8.02 ± 0.79 µM,11.1 ± 0.69 µM,7.33 ± 0.46 µM,4.73 ± 0.42 µM,6.98 ± 0.83 µM,14.9 ± 0.79 µM,6.77 ± 0.69 µM,4.41 ± 0.27 µM,6.84 ± 0.59 µM,,
"COc1cc2ncnc(NCc3cccc(NC(=O)Nc4cc(C(F)(F)F)cc(C(F)(F)F)c4)c3)c2cc1OCCCCCCN1CCC(CN2CCN(c3ccccn3)CC2)CC1 [Compound 8-2w, N-(3-(((7-methoxy-6-((6-(4-((4-(pyridin-2-yl)piperazin-1-yl)methyl)piperidin-1-yl)hexyl)oxy)quinazolin-4-yl)amino)methyl)phenyl)-N′-(3,5-bis(trifluoromethyl)phenyl)urea]",5.87 ± 0.49 µM,9.69 ± 0.72 µM,13.1 ± 0.67 µM,9.49 ± 0.42 µM,5.16 ± 0.27 µM,15.5 ± 0.92 µM,8.33 ± 0.81 µM,7.84 ± 0.52 µM,7.19 ± 0.68 µM,5.92 ± 0.54 µM,6.42 ± 0.56 µM,15.1 ± 0.66 µM,6.42 ± 0.16 µM,5.59 ± 0.46 µM,8.04 ± 0.45 µM,,
"COc1cc2ncnc(NCc3cccc(NC(=O)NCc4ccccc4)c3)c2cc1OCCCCCCN1CCC(CN2CCN(c3ccccn3)CC2)CC1 [Compound 8-2y, N-(3-(((7-methoxy-6-((6-(4-((4-(pyridin-2-yl)piperazin-1-yl)methyl)piperidin-1-yl)hexyl)oxy)quinazolin-4-yl)amino)methyl)phenyl)-N′-benzylurea]",5.92 ± 0.66 µM,7.01 ± 0.62 µM,4.92 ± 0.31 µM,9.89 ± 0.23 µM,6.23 ± 0.56 µM,11 ± 0.85 µM,5.91 ± 0.46 µM,4.13 ± 0.32 µM,8.96 ± 0.67 µM,4.07 ± 0.19 µM,5.02 ± 0.49 µM,7.36 ± 0.42 µM,3.92 ± 0.24 µM,5.71 ± 0.54 µM,6.74 ± 0.52 µM,,
"COc1cc2ncnc(NCc3cccc(NC(=O)NC4CCCCC4)c3)c2cc1OCCCCCCN1CCC(CN2CCN(c3ccccn3)CC2)CC1 [Compound 8-2z, N-(3-(((7-methoxy-6-((6-(4-((4-(pyridin-2-yl)piperazin-1-yl)methyl)piperidin-1-yl)hexyl)oxy)quinazolin-4-yl)amino)methyl)phenyl)-N′-cyclohexylurea]",5.23 ± 0.52 µM,11.1 ± 0.83 µM,3.96 ± 0.19 µM,10.9 ± 0.59 µM,8.69 ± 0.72 µM,10.3 ± 0.93 µM,4.05 ± 0.34 µM,3.93 ± 0.22 µM,8.02 ± 0.81 µM,5.33 ± 0.52 µM,6.39 ± 0.68 µM,14.9 ± 0.98 µM,3.71 ± 0.19 µM,6.32 ± 0.49 µM,4.77 ± 0.26 µM,< 5 µM,< 5 µM
